Data: patent publication EP2990415B1, “Cyclic beta defensins analogs for the treatment of infections” (Ceinge Biotecnologie Avanzate S.C. a R.L., priority 2014, dated 2016)
pIC50: −log10 of the molar value. Bridge positions count the residues as written; N and C are the ends. Ends that are not written are not given here. Peptide text beside a SMILES is read from it.

How the values were obtained:
[1] = tested on: Enterococcus faecalis ATCC 29212; format: cell-based; conditions: 12.5 µM
Description: (§1) A CFU assay of the antibacterial activity of the peptides of the present invention against Pseudomonas aeruginosa ATCC (American Type Culture Collection, Manassas, VA, USA) 27853, Enterococcus faecalis ATCC 29212 and Escherichia coli ATCC 25922 was performed as follows. The strains were grown in aerobic conditions in tryptic soy broth (Difco Laboratories, Detroit, MI, USA) at 37°C and incubated in the presence of hBDs for 2 h at 37°C. We used two concentrations of peptides, i.e., 2.5 µM and 12.5 µM. For salt-dependence assay, 0, 50, 100 and 200 mM NaCl were included in the incubation buffer as previously described (1). Each assay was performed in triplicate. Bactericidal activity (mean and SD of three assays) is expressed as the ratio between colonies counted and the number of colonies on a control plate. The minimal inhibitory concentration (MIC) of the peptide SEQ ID No. 25 was determined with a modified version of the microbroth dilution assay of the National Committee for Clinical Laboratory Standards using a final inoculum of 10^5 CFU/ml. The following peptide concentrations were used: 100.0, 50.0, 25.0, 12.5, 6.25, 3.12 and 1.56 µM.

[2] = tested on: Escherichia coli ATCC 25922; format: cell-based; conditions: 12.5 µM
Description: as §1

[3] = tested on: Pseudomonas aeruginosa ATCC 27853; format: cell-based; conditions: 12.5 µM
Description: as §1

HSV-1 [4] = assay: Inhibition of HSV infectivity on Vero cell monolayers (co-exposure, virus pre-exposure, cell pre-exposure, post-exposure); format: cell-based
Description: Vero cells were grown in Dulbecco's modified Eagle's medium (DMEM) supplemented with 10% fetal calf serum. HSV-1 carrying a lacZ gene driven by the cytomegalovirus (CMV) IE-1 promoter to express beta-galactosidase was propagated as described elsewhere (Galdiero S, Falanga A, Vitiello M, D'Isanto M, Cantisani M, Kampanaraki A, Benedetti E, Browne H, Galdiero M. Peptides. 2008 Sep;29(9):1461-71). All experiments were conducted in parallel with no-peptide controls. […] Non-penetrated viruses were inactivated by citrate buffer at pH 3.0. Monolayers were fixed, stained with 5-bromo-4-chloro-3-indolyl-beta-D-galactopyranoside (X-gal) and plaque numbers were scored. Experiments were performed in triplicate and the percentage of inhibition was calculated with respect to no-peptide control experiments; ii) For "virus pre-exposure" experiments, […] monolayers; iii) For "cell pre-exposure" experiments, Vero cells were incubated with 20 µM of peptides for 30 min at 4°C and infected with serial dilutions of HSV-1 for 45 min at 37°C; and iv) For "post-exposure" experiments, Vero cell monolayers were incubated with virus for 45 minutes at 37°C and afterwards the peptide was added to the inoculum followed by an additional incubation period of 30 minutes at 37°C.
The antiviral activity was evaluated in co-exposure experiments (with cell, virus, and peptide at zero time), virus pre-exposure experiments (virus plus peptide before cell infection), cell pre-exposure experiments (cell plus peptide before virus infection) and post-treatment (cell plus virus before peptide addition) in order to evaluate in which phase, if any, the peptides could inhibit virus infectivity. […] Both in the co-exposure and virus pre-treatment experiments, the oxidized SEQ. […]

HSV-1 [5] = conditions: reported elsewhere; cited from earlier work
[6] = tested on: P. aeruginosa, E. coli and E. faecalis; format: cell-based
Description: as §1

**Q.** Which antibacterial effect [1] does the source give for “GIINTLQKYYCRVRGGRCAVLSCLPKEEQIGKCSTRGRKCCRRKK (disulfide 11-40, 18-33, 23-41 (inferred)) [hBD3]” here?
**A.** strong antibacterial effect

**Q.** And the antibacterial effect [2]?
**A.** strong antibacterial effect

**Q.** And the antibacterial effect [3]?
**A.** strong antibacterial effect

**Q.** And the Peptide inhibition (HSV-1 [4]; Cell Pre-treatment at 4°C, 1 uM)?
**A.** 53.5

**Q.** What about the Peptide inhibition (HSV-1 [4]; Cell Pre-treatment at 4°C, 5 uM) of the same compound?
**A.** 41

**Q.** And the Peptide inhibition (HSV-1 [4]; Cell Pre-treatment at 4°C, 10 uM)?
**A.** 27

**Q.** What about the Peptide inhibition (HSV-1 [4]; Cell Pre-treatment at 4°C, 20 uM) of the same compound?
**A.** 22

**Q.** And the Peptide inhibition (HSV-1 [4]; Cell Pre-treatment at 4°C, 50 uM)?
**A.** 18

**Q.** And the Peptide inhibition (HSV-1 [4]; Cell Pre-treatment at 4°C, 150 uM)?
**A.** 1

**Q.** What about the Peptide inhibition (HSV-1 [4]; Cell Pre-treatment at 4°C, 1000 uM) of the same compound?
**A.** 5

**Q.** And the Peptide inhibition (HSV-1 [4]; Co-treatment at 37°C, 1 uM)?
**A.** 79

**Q.** And the Peptide inhibition (HSV-1 [4]; Co-treatment at 37°C, 5 uM)?
**A.** 60

**Q.** And the Peptide inhibition (HSV-1 [4]; Co-treatment at 37°C, 10 uM)?
**A.** 43

**Q.** What about the Peptide inhibition (HSV-1 [4]; Co-treatment at 37°C, 20 uM) of the same compound?
**A.** 32

**Q.** And the Peptide inhibition (HSV-1 [4]; Co-treatment at 37°C, 50 uM)?
**A.** 17.5

**Q.** What about the Peptide inhibition (HSV-1 [4]; Co-treatment at 37°C, 150 uM) of the same compound?
**A.** 6.5

**Q.** What about the Peptide inhibition (HSV-1 [4]; Co-treatment at 37°C, 1000 uM) of the same compound?
**A.** 9

**Q.** What about the Peptide inhibition (HSV-1 [4]; Virus Pre-treatment at 37°C, 1 uM) of the same compound?
**A.** 64

**Q.** What about the Peptide inhibition (HSV-1 [4]; Virus Pre-treatment at 37°C, 5 uM) of the same compound?
**A.** 52

**Q.** What about the Peptide inhibition (HSV-1 [4]; Virus Pre-treatment at 37°C, 10 uM) of the same compound?
**A.** 33

**Q.** What about the Peptide inhibition (HSV-1 [4]; Virus Pre-treatment at 37°C, 20 uM) of the same compound?
**A.** 31

**Q.** And the Peptide inhibition (HSV-1 [4]; Virus Pre-treatment at 37°C, 50 uM)?
**A.** 20

**Q.** What about the Peptide inhibition (HSV-1 [4]; Virus Pre-treatment at 37°C, 150 uM) of the same compound?
**A.** 8.5

**Q.** What about the Peptide inhibition (HSV-1 [4]; Virus Pre-treatment at 37°C, 1000 uM) of the same compound?
**A.** 10

**Q.** And the pIC50 (HSV-1 [4]; antiviral activity against HSV-1 on Vero cells)?
**A.** 5.00

**Q.** And the “antiviral activity of oxidized versus reduced form” value (HSV-1 [5])?
**A.** the same antiviral activity

**Q.** With “hBD1: human β-defensin 1, wild-type reference peptide (DHYNCVSSGGQCLYSACPIFTKIQGTCYRGKAKCCK; ends and bridges not checked; cysteine pairing not given here; UniProt P60022 33-68, looked up)” as the compound, how does the antibacterial effect [1] read?
**A.** strong antibacterial effect

**Q.** What about the antibacterial effect [2] of the same compound?
**A.** strong antibacterial effect

**Q.** What about the antibacterial effect [3] of the same compound?
**A.** strong antibacterial effect

**Q.** For `CC[C@H](C)[C@@H]1NC(=O)[C@H](CCCCN)NC(=O)[C@H]([C@@H](C)O)NC(=O)[C@H](Cc2ccccc2)NC(=O)[C@H]([C@@H](C)CC)NC(=O)[C@@H]2CCCN2C(=O)[C@@H](N)CSSC[C@@H](C(=O)NCC(=O)NCC(=O)N[C@@H](CCCNC(=N)N)C(=O)N[C@@H](CCCNC(=N)N)C(=O)N[C@@H](CCCCN)C(=O)N[C@@H](CCCCN)C(N)=O)NC(=O)[C@H]([C@@H](C)O)NC(=O)CNC(=O)[C@H](CCC(N)=O)NC1=O` [SEQ ID No. 25] (H-CPIFTKIQGTCGGRRKK-NH2; disulfide 1-11), which MIC [6] is on record?
**A.** 12.5 to 25.0 µM
